Test results taken from patent publication US8088951B2, “Epigenetic mechanisms re-establish access to long-term memory after neuronal loss” (Massachusetts Institute of Technology, priority 2006, dated 2012).
“Also recorded” adds a separate entry of the source.

Experiments:
Format in all cases: in vivo
[1] = tested on: C57BL/6J mice; experiment: Contextual fear conditioning (associative learning) in wild type mice; details: for freezing behavior during the memory test: test 24 h later
Text: Learning tests: All behavioral testing is described in Fischer et al. (3).
Mechanism underlying EE. Other than a few genes involved in synaptic function, relatively little is known about the mechanism underlying EE (12-14). Since histone acetylation, an epigenetic mechanism regulating gene expression via chromatin remodeling, has recently been implicated in synaptic plasticity and learning behavior (15-18), the induction of a transcriptional program by EE that leads to activation of plasticity genes was evaluated. Wild type mice were subjected to EE and hippocampal and cortical brain lysates were obtained 3, 24 h or 2 weeks later (n=3/group) by acid extraction and probed with antibodies detecting histone-tail modification that indicate active chromatin. Increases in hippocampal H3 (K-9, K14) and H4 (K-5) and in cortical H3 (K-9) and H4 (K-5) acetylation were observed. […] No changes in H4 acetylation were observed when the Ac-H4 (K,8,12,16) antibody was used, which is likely due to the fact that H4-K16 is a marker of condensed chromatin. EE induced hippocampal and cortical histone 3 (H3) and histone 4 (H4) acetylation and […] as soon as 3 hours after treatment (FIGS. 3a, b). […] To investigate whether inhibition of HDACs mimics the effects of EE, SB was administered daily [ip] into wild type mice for 4 weeks (FIG. 3c). […] Two days after the last injection mice were trained in the fear conditioning paradigm. […] Locomotor activity or basal anxiety was not altered in SB-injected mice (FIG. 8c).
The effect of sodiumbutyrate injection on learning, basal anxiety, explorative behavior and brain plasticity. C57BL/6J mice were subjected to fear conditioning and injected intraperitoneally [ip] with 1.2 g/kg sodiumbutyrate (SB, n=8) or saline (vehicle; n=8) immediately afterwards. […] C57BL/6J mice were implanted with microcannulae into the lateral brain ventricles (icv) and injected with either 100 ng SB, 50 ng TSA or vehicle immediately after fear conditioning (n=8/group). […] C57BL/6J were daily injected [ip] with SB or saline (n=8/group) for 4 weeks before all mice were subjected to the elevated plus maze and open field test. […] Immunoblots were quantified relative to the optical density of the vehicle-group (set to 1). […] The analysis was performed as described under FIG. 1g.
The effects of SAHA and MS-275, relative to sodium butyrate (SB), on the hippocampus dependent associative learning in wildtype mice.
Mice were injected 10 days with either 5 mg/kg of MS275 or 25 mg/kg of UW_WT-I—06 or UW_WT-I—05 before training and memory tests as described above. […] Andorfer, C. et al. Cell-cycle reentry and cell death in transgenic mice expressing nonmutant human tau isoforms. J neurosci 25, 5446-5454 (2005). • 2. Santacruz, K. et al. Tau suppression in a neurodegenerative mouse model improves memory function. Science 309, 476-481 (2005). • 3. Fischer, A., Sananbenesi, F., Pang, P. T., Lu, B. & Tsai, L. H. Opposing roles of transient and prolonged expression of p25 in synaptic plasticity and hippocampus-dependent memory. Neuron 48, 825-838 (2005). • 4. Cruz, J. C. & Tsai, L. H. Jekyll and Hyde kinase: roles for Cdk5 in brain development and disease. Curr Opin Neurobiol. 14, 390-394 (2004). • 5. Cruz, J. C., Tseng, H. C., Goldman, J. A., Shih, H. & Tsai, L. H. Aberrant Cdk5 activation by p25 triggers pathological events leading to neurodegeneration and neurofibrillary tangles. Neuron 40, 471-83 (2003). • 6. Nithianantharajah, J. & Hannan, A. J. Enriched environments, experience-dependent plasticity and disorders of the nervous system. Nat Rev Neurosci 7, 697-709 (2006). • 7. Kim, J. J. & Fanselow, M. S. Modality-specific retrograde amnesia of fear. Science 256, 675-7 (1992). • 8. Gilmore, E. C. & Herrup, K. Neocortical cell migration: GABAergic neurons and cells in layers I and VI move in a cyclin-dependent kinase 5-independent manner. J Neurosci 21, 9690-700 (2001). • 9. […]

[2] = tested on: CK-p25 Tg mice; experiment: Recovery of long-term spatial memories in CK-p25 Tg mice (water maze reminder-training); details: daily injection after 6 weeks p25 expression
Text: Recovery of spatial memories upon environmental enrichment and sodiumbutyrate injection. CK-p25 Tg mice in which p25 expression was repressed and control mice were trained in the water maze paradigm until all mice reliably found the hidden platform. Afterwards all mice were returned to their home cages for 4 weeks to allow the consolidation of hippocampus independent long-term memories. Afterwards p25 expression was induced for 6 weeks, followed by p25 repression. […] To measure the retrieval of long-term memory mice were instead exposed to only 2 reminder-training sessions on a single day. […] The recovery of spatial memories upon environmental enrichment was evaluated by a similar experiment, except that after 6 weeks of p25 expression mice were either subjected to EE or returned to their home cages for 4 weeks. […] To evaluate the recovery of spatial memories upon SB injection, a similar experiment was performed as described above, but instead of EE, one group of CK-p25 Tg mice (n=10) received daily injection of SB, whereas the other group was injected with vehicle (n=10).

[3] = tested on: MAP-2, synaptophysin (SVP), synaptic and dendritic marker proteins; experiment: Synaptic and dendritic markers in hippocampus of wild type mice (immunostaining, immunoblot); details: wild type mice injected for 4 weeks
Description: Immunoblotting and staining: Lysates for immunoblotting were prepared as described by Fischer et al. (3). To isolate histones, brain tissue was homogenized in TX-buffer (50 mM Tris HCL, 150 mM NACL, 2 mM EDTA, 1% Triton-100) and incubated at 4° C. for 15 min prior to centrifugation at 200 rpm for 10 min. After a wash-step in TX-buffer the pellet was dissolved in TX-buffer containing 0.2M HCl and incubated on ice for 30 min, before a second centrifugation at 10000 rpm for 10 min. The supernatant was either dialysed or directly used for immunoblotting. Antibodies were used in 1:1000 concentrations. All antibodies detecting histones and anti-PSD-95 were form Upstate (Lake Placid, N.Y.). Anti-synaptophysin (SVP38) was from Sigma. Anti-neuronal nuclei (neuN) and anti-growth associated protein (Gap43) were from Chemicon (Temecula, Calif.) and anti-N-cadherin, anti-β-catenin were from Santa Cruz (Santa Cruz, Calif.). Immunostaining was performed as described by Fischer et al. (3). Antibodies mentioned above were used in a 1:500 dilution. Anti-MAP-2 antibody (Sigma) was used in a 1:200 dilution.
LSMeta10 software (Zeiss; Jena, Germany) was used to calculate the mean SVP intensity. Brain sections with the strongest intensity were scanned first. All other images included in the analysis where scanned using the same microscope setting. […] Scale bar: 20 μm. py, pyramidal cell layer (FIG. 1g).
The effect of sodiumbutyrate injection on learning, basal anxiety, explorative behavior and brain plasticity. C57BL/6J mice were subjected to fear conditioning and injected intraperitoneally [ip] with 1.2 g/kg sodiumbutyrate (SB, n=8) or saline (vehicle; n=8) immediately afterwards. […] C57BL/6J mice were implanted with microcannulae into the lateral brain ventricles (icv) and injected with either 100 ng SB, 50 ng TSA or vehicle immediately after fear conditioning (n=8/group). […] Immunoblots were quantified relative to the optical density of the vehicle-group (set to 1). […]

## CCCC(=O)[O-].[Na+] [SB, sodiumbutyrate]
[1]; daily ip 1.2 g/kg for 4 weeks, trained two days after last injection, tested 24 h later, P<0.0001
  freezing during the memory test: more freezing during the memory test
[1]; icv 100 ng SB or 50 ng TSA immediately after fear conditioning, P<0.0001
  freezing behavior during the memory test: more freezing behavior than vehicle injected mice
[1]; single ip 1.2 g/kg immediately after fear conditioning, P<0.0001
  freezing behavior during the memory test: significantly more freezing behavior
[1]; wild type mice, intraperitoneal [ip] and intracerebroventricular [icv] injections
  associative learning: significantly facilitated associative learning
[1]; wildtype mice, chronic treatment for 10-21 days
  associative learning, contextual fear conditioning paradigm: facilitates contextual fear conditioning learning
[2]
  recovery of long-term spatial memories: leads to the recovery of long-term spatial memories; also recorded: spatial long-term memories recover after neuronal loss
[3]; immunoblots relative to vehicle
  levels of synaptic and dendritic marker proteins (markers for brain plasticity), hippocampal lysates: elevated levels; also recorded: Several markers for brain plasticity were increased
[3]; vs vehicle
  hippocampal MAP-2 immunoreactivity (IR): increased MAP-2 immunoreactivity (IR)
  hippocampal synaptophysin (SVP) IR: increased SVP IR
